Non-standard residues stand in square brackets, D forms with d. Residues, ends and D or L forms follow the SMILES beside them. pGlu = O=C1CC[C@@H](C(=O)O)N1 Bounds are passed on as bounds.

`C[C@@H](CCOC(N)=O)CN1CCC(c2noc3cc(F)ccc23)CC1` showed a melting point of 72 to 74 °C.

The molecule `Cc1ccc(C2=Cc3cc(C(=O)Nc4ccc(CN(C)C5CCOCC5)cc4)ccc3OC2)cc1` registered a melting point of 230 to 235 °C.

In turn, `O=Cc1ccc(C(=O)Nc2ccc(Cl)cc2)cc1` showed a melting point of 158 °C.

In turn, `COCC1CN(c2ccc(C3CCC(OCCC#N)CC3)cc2)C(=O)O1` (racemic) had a melting point of 57 to 59 °C.

`O=C(O)Cc1ccc(NC(=O)C(COc2cccc(Cl)c2)NS(=O)(=O)c2ccc(Br)cc2)cc1` (racemic) gave a melting point of 225 to 228 °C.

For `c1ccc(CN2CCC(=C3c4ccsc4CCn4ccnc43)CC2)cc1`, the melting point was found to be 178 °C.

The molecule `COC(=O)C(C(=O)OC)c1ccccc1COc1ccccc1C` came in with a melting point of 99 to 103 °C.

Molecule `CCOC(=O)C(C(=O)OCC)=C1NC(=O)N(Cc2ccccc2)C1=O` gave a melting point of 149 to 151 °C.

For the molecule `CCc1ccc(NC(=S)SC)cc1`, the melting point stood at 78 °C.

Consider `COc1ccc2c3c1OC1C4(CCC5(F)C(C2)N(C(=O)C2CC2)CCC315)OCCO4` (stereo not drawn), for which the melting point fell in the range of 191 to 193 °C.

In turn, `CSc1nn2c(N3CCN(C)CC3)cc(C)nc2c1S(=O)(=O)c1cccnc1` came in with a melting point of 188 to 189 °C.

Turning to `Cc1ccccc1Nc1c(C(=O)C(C)C)cnc2c(CO)cccc12`, the melting point was in the range of 116 to 118 °C.

On to `CC(C)C(NC(=O)OC(C)(C)C)N1CC(NC(=O)Cc2ccccc2)C1=O` (stereo not drawn), for which the melting point lay within 64 to 66 °C.

For the molecule `NS(=O)(=O)c1ccc(-n2nc(C(F)(F)F)cc2-c2ccc(-c3ccco3)cc2)cn1`, the melting point lay in the range of 140 to 170 °C.

`CN(c1cc(OC(F)(F)F)cc2cc(C(N)=O)[nH]c12)S(=O)(=O)c1cccs1` registered a melting point of 228 to 229 °C.

In turn, `COc1nscc1[N+](=O)[O-]` showed a melting point of 118 to 122 °C.

Take `N#Cc1cnc2sc(-c3ccccc3)cc2c1Nc1cccc2cc[nH]c12`: the melting point was greater than 245 °C.

For `C[C@@H]1NC(=O)C[C@@]1(O)C1CC1`, the melting point was in the range of 133 to 140 °C.

In turn, `C=CCN1C2CCC1C1CCC2N1C(c1ccc(C(=O)N(C)C)cc1)c1cccc(OC)c1` (stereo not drawn) returned a melting point of 100 to 103 °C.

The molecule `CC(C)[C@H]1COC(=O)N1C(=O)[C@H](C)CC(=O)OC(C)(C)C` returned a melting point of 64 to 65 °C.

Take `CCCOCc1nc(C(C)(C)O)c(C(=O)O)n1Cc1ccc(-c2ccccc2-c2nnn[nH]2)cc1`: the melting point lay in the range of 166 to 168 °C.

For `CCn1c2ccccc2c2cc(NC(=S)NNC(C)=O)ccc21`, the melting point lay within 197 to 199 °C.

In the case of `CC(C)N(Cc1ccccc1)S(=O)(=O)N[C@@H](Cc1ccc(NC(=O)c2c(Cl)cccc2Cl)cc1)C(=O)O`, the melting point was 159 °C.

In turn, `Cc1cccc(NC(=O)NC2N=C(CC(C)C)c3cccc(C)c3N(CC(=O)C3CCCCC3)C2=O)c1` (stereo not drawn) yielded a melting point of 152 to 155 °C.

`Cc1ccc(-c2[nH]c(C)nc2C(=O)Nc2nccs2)cc1` yielded a melting point of 275 to 276 °C.

The molecule `O=C(NCCc1ccccn1)c1ccccc1-c1ccccc1CNS(=O)(=O)c1ccccc1` yielded a melting point of 131 °C.

`O=C1CC(c2ccc(OCc3ccccc3)cc2)=Nc2ccc(N3CCOCC3)cc21` displayed a melting point of 320 to 323 °C.

Consider `CCc1cccc(-n2cnc(-c3cnc4[nH]cc(C(=O)N[C@@H](C)C(C)(C)C)c4n3)c2)c1`, for which the melting point was in the range of 284 to 287 °C.

Take `CCCCn1c(=O)n(CCC)c(=O)c2c(NC(C)=O)n[nH]c21`: the melting point was 156 to 158 °C.

`O=C(OC1CCCC1)c1ncn2c1[C@@H]1CCN1C(=O)c1c(I)cccc1-2` showed a melting point of 184 to 185 °C.

As to `CCCc1c(O)c(C(=O)O)cc(Cl)c1OCCCCCCc1cccc(O)c1O`, the melting point lay in the range of 110 to 113 °C.

As for `O=c1c2cnc(Cl)cc2[nH]c2ccnn12`, the melting point is greater than 300 °C.

In the case of `CN1C(=O)C(NC(=O)CCC2CCCCC2)N=C(c2ccccc2)c2cnccc21` (stereo not drawn), the melting point was 170 to 173 °C.

`N#Cc1nn(-c2c(Cl)cc(C(F)(F)F)cc2Cl)c(N)c1-c1onc(Br)c1Br` showed a melting point of 279 °C.

In the case of `CC(C)(C)COC(=O)c1cc(Cl)c(F)c(Cl)c1`, the melting point was in the range of 96 to 98 °C.

Take `COC(=O)c1ccc(CNC(=O)C2Cc3ccccc3N2S(=O)(=O)c2ccc(-c3cccc(C(F)(F)F)c3)cc2)c(OC)c1` (stereo not drawn): the melting point fell in the range of 78 to 85 °C.

The molecule `Cc1ccc(Oc2ccc(-c3nnc(N)o3)cc2)c(O)c1` displayed a melting point of 181 to 183 °C.

With `O=c1[nH]c(-c2ccccc2Br)nc2c1CCCC2`, the melting point came to 193 °C.

`O=C1N=C(N2CCNCC2)SC1=Cc1cccc(-c2cc(F)c(O)c(C34CC5CC(CC(C5)C3)C4)c2)c1` had a melting point of 230 to 233 °C.

As for `Cc1[nH]c(-c2ccccc2)nc1C(O)C(C)C` (stereo not drawn), the melting point was determined as 214 °C.

For the molecule `CCOC(=O)CCc1c[nH]c2ccc([N+](=O)[O-])cc12`, the melting point lay within 118 to 121 °C.

For `COc1cc(F)c(C(O)C#N)cc1OC` (stereo not drawn), the melting point lay within 112 to 114 °C.

Molecule `Cn1nc(N)nc1NCCCOc1cccc(CNC2CCCCC2)c1` yielded a melting point of 102 to 103 °C.

The molecule `C=CS(=O)(=O)CC(COCCCCCCCCCCCCCCCCCC)OC` (stereo not drawn) gave a melting point of 47 to 49 °C.

`CC(=O)OC1(O)C(C(C)(C)C)=CC(C(=O)c2ccccc2O)=CC1C(C)(C)C` (stereo not drawn): the melting point was in the range of 182 to 186 °C.

For `COc1cccc(CC(CS)C(=O)Nc2c[nH]c(C(=O)O)c2)c1` (stereo not drawn), the melting point is 153 to 158 °C.

As for `CC(=O)[NH+]([O-])C[C@@H]1CN(c2ccc(N3CCN(S(C)(=O)=O)CC3)c(F)c2)C(=O)O1` (stereo partly drawn), the melting point fell in the range of 168 to 170 °C.

On to `O=c1ccn(C2CC(O)C(CNC(c3ccccc3)(c3ccccc3)c3ccccc3)O2)c(=O)[nH]1` (stereo not drawn), for which the melting point fell in the range of 132 to 134 °C.

For the molecule `Cn1c(=O)c(C#N)c(Cl)c2cc(Cl)ccc21`, the melting point was determined as 256 °C.

Take `CC(O)=C(C#N)C(=O)Nc1ccc(F)cc1`: the melting point lay within 165 to 166 °C.

For the molecule `O=C(NCC1CCN(CC2(C(=O)O)CC2)CC1)N1C(=O)C2(CCCC2)c2ccccc21`, the melting point was found to be 186 °C.

In turn, `Cn1nc(N)nc1NCCCOc1ccc(CN2CCCCC2)cc1` gave a melting point of 104 to 105 °C.

In turn, `COc1ccc2c(c1)C(c1ccc(N)cc1)=NN(C(=O)C1CC1)C(C)C2` (stereo not drawn) displayed a melting point of 93 to 95 °C.

In turn, `c1ccc2c(c1)OC(c1ccc(OCCN3CCCCC3)cc1)c1c-2sc2ccccc12` (stereo not drawn) yielded a melting point of 107 °C.

`CC1(C)OC(=O)Nc2ccc(-c3cc(C(F)(F)F)cc(C(F)(F)F)c3)cc21` came in with a melting point of 258 to 260 °C.

As for `COC(=O)[C@H](CS)NC(=O)[C@@H]1CCC(=O)N1` ([pGlu]-Cys-OMe), the melting point lay in the range of 114 to 116 °C.

For the molecule `COCOCCCOn1cnc2cnc(NC=O)nc21`, the melting point fell in the range of 115 to 116 °C.

The molecule `O=CN(O)C(CS(=O)(=O)c1ccccc1Oc1ccc(OC(F)(F)F)cc1)C(CO)CO` (stereo not drawn) yielded a melting point of 129 to 131 °C.

As for `CCCCC(=O)c1c(-c2ccc3c(Cl)c(OCc4nnn[nH]4)ccc3c2)oc2ccccc12`, the melting point was 168 to 169 °C.

On to `Cn1ccc(-c2cc3nccnc3[nH]2)c1`, for which the melting point was in the range of 211 to 213 °C.

For `O=c1[nH]c(=O)n(C2CC(F)C(COC(c3ccccc3)(c3ccccc3)c3ccccc3)O2)cc1C(I)=CI` (stereo not drawn), the melting point was 58 °C.

On to `COC(=O)c1cc(-c2ccc(F)c(C)c2)nn(Cc2ccccc2)c1=O`, for which the melting point lay in the range of 109 to 110 °C.

Consider `CCCc1c(CSc2nnc(NC(=O)CCC(=O)OCC)s2)ccc(C(C)=O)c1O`, for which the melting point stood at 166 °C.

The molecule `COC(=O)CCC(=NO)c1ccccc1` registered a melting point of 76 to 77 °C.

In turn, `COC(=O)c1ccc(NC(C)=O)c(CC(=O)O)c1` came in with a melting point of 194 °C.

For the molecule `CNc1cc(CCN)ccc1OC`, the melting point fell in the range of 90 to 92 °C.

For `COC(=O)C#CC(=O)c1ccc2c(c1)OCO2`, the melting point lay in the range of 95 to 97 °C.

`COc1cccc(Sc2ccccc2CC(=O)O)c1` showed a melting point of 63 to 65 °C.

For `COc1cccc2c1CCC(C#N)C2O` (stereo not drawn), the melting point lay within 96 to 98 °C.

Molecule `CCN(CC)SNc1ccc(Oc2ccc(C(F)(F)F)cc2Cl)cc1F` showed a melting point of 58 to 60 °C.

As for `C=CCC1=C(C)C(O)CC1=O` (stereo not drawn), the melting point is 130 to 132 °C.

In the case of `CCOc1ccc(C#N)c(F)c1F`, the melting point amounted to 45 °C.

For the molecule `O=C(O)C1CCc2c(c3cc(O)ccc3n2C(=O)c2ccccc2)C1` (stereo not drawn), the melting point lay within 224 to 227 °C.

Take `CC(C#Cc1ccc(C=Cc2ccc(F)cc2)s1)N(O)C(N)=O` (stereo not drawn): the melting point was found to be 177 °C.

In the case of `O=C(NOCc1ccccc1)c1cc(F)c(Cl)nc1Cl`, the melting point is 176 to 177 °C.

For `O=C(C=NO)Nc1cc(Cl)cc(Cl)c1`, the melting point was 196 to 197 °C.

`COC(=O)N1C2C3C=CC(C3OC(C)(C)C)C2N1C(=O)OC` (stereo not drawn) came in with a melting point of 86 °C.

On to `CN(CCc1ccc(O)cc1)[C@H]1CC[C@H](c2ccccc2)CC1`, for which the melting point lay in the range of 97 to 105 °C.

`COc1ccccc1NC1c2cc(NC(=O)CC(C)(C)C)c(C)c(C)c2OC1(C)C` (stereo not drawn): the melting point lay within 184 to 185 °C.

In the case of `CCN(CC)CCCCC(=O)c1cc(Cl)c(N)cc1OCc1cc(OC)cc(OC)c1`, the melting point was in the range of 105 to 107 °C.

For the molecule `CN(C)CCCOc1ccc(N(C(=O)c2ccc(F)cc2)c2ccccc2)cc1`, the melting point fell in the range of 82.5 to 83.5 °C.

Regarding `CC(=O)NNc1ccc(N(Cc2ccccc2)C(=S)Nc2ccccc2)cc1`, the melting point lay in the range of 114 to 117 °C.

`Cc1nc(N2CCC(Cc3ccc(F)cc3)C2=O)sc1C(=O)NCc1cccnc1` (stereo not drawn) registered a melting point of 169 to 170 °C.

`Cc1nc(N2CCN(Cc3ccc(C(F)(F)F)o3)C2=O)sc1C(=O)NCc1ccccc1` showed a melting point of 143 to 145 °C.

With `CCO[C@@H]1[C@@H](OC)[C@H](C)O[C@@H](ON=Cc2ccc(C#Cc3ccc(OC(F)(F)F)cc3)cc2)[C@@H]1OC`, the melting point is 82 to 87 °C.

As for `CC(C)CCN1C(=O)C(NC(=O)n2ccnc2)C(=O)N(c2ccccc2)c2ccccc21` (stereo not drawn), the melting point lay within 62 to 65 °C.

As to `O=S(=O)(c1ccc(Cl)cc1)N1CCCC1c1ccc(F)c(F)c1` (racemic), the melting point came to 121 °C.

On to `CCOC(=O)c1ccc(N2CCN(CC(=O)c3ccc(Cl)cc3)CC2)cc1`, for which the melting point is 150 to 152 °C.

These data come from a melting point compilation (Tetko et al.; mined from patent text by program, amines drawn as free bases though some values may be those of a salt).
